In PubChem BioAssay AID330 (DTP/NCI, 2004):
Several values for one entry are separate records, joined by “and”; a condition that tells them apart may be missing. Equal entries are not always repeated. Toxic doses and inconclusive results are not listed. Rule for the calls: active = survival T/C of 150% or more; inactive = T/C below 125% in these data.

Test system: P388 leukemia ip, CD2F1 mice, survival T/C
Assay: NCI In Vivo Anticancer Drug Screen. Data for tumor model P388 Leukemia (intraperitoneal) in CD2F1 (CDF1) mice
Details: endpoint: median survival time, higher = longer survival
Summary of the method: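 Mice carrying the transplanted tumor received test compound or vehicle. Survival was recorded in each group, and the value is the treated-group measurement divided by that of the vehicle-treated control group.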

[1] = dose: 100.0 mg/kg/injection, schedule: Q04DX003 (ip), vehicle: saline with Tween-80
[2] = dose: 200.0 mg/kg/injection, schedule: Q04DX003 (ip), vehicle: saline with Tween-80
[3] = dose: 100.0 mg/kg/injection, schedule: Q01DX001 (ip), vehicle: Klucel (hydroxypropylcellulose) (HPC)
[4] = dose: 200.0 mg/kg/injection, schedule: Q01DX001 (ip), vehicle: Klucel (hydroxypropylcellulose) (HPC)
[5] = dose: 50.0 mg/kg/injection, schedule: Q01DX009 (ip), vehicle: saline with Tween-80
[6] = dose: 100.0 mg/kg/injection, schedule: Q01DX009 (ip), vehicle: saline with Tween-80
[7] = dose: 200.0 mg/kg/injection, schedule: Q01DX009 (ip), vehicle: saline with Tween-80
[8] = dose: 12.5 mg/kg/injection, schedule: Q01DX009 (ip), vehicle: saline with Tween-80
[9] = dose: 25.0 mg/kg/injection, schedule: Q01DX009 (ip), vehicle: saline with Tween-80
[10] = dose: 50.0 mg/kg/injection, schedule: Q01DX009 (ip), vehicle: Klucel (hydroxypropylcellulose) (HPC)
[11] = dose: 50.0 mg/kg/injection, schedule: Q01DX005 (ip), vehicle: saline with Tween-80
[12] = dose: 100.0 mg/kg/injection, schedule: Q01DX005 (ip), vehicle: saline with Tween-80
[13] = dose: 200.0 mg/kg/injection, schedule: Q01DX005 (ip), vehicle: saline with Tween-80
[14] = dose: 60.0 mg/kg/injection, schedule: Q01DX005 (ip), vehicle: Klucel (hydroxypropylcellulose) (HPC)
[15] = dose: 120.0 mg/kg/injection, schedule: Q01DX005 (ip), vehicle: Klucel (hydroxypropylcellulose) (HPC)

Measured: T/C

CCN(CC)CCNC(=O)Cc1cc(O)c2c(c1O)C(=O)c1ccccc1C2=O
inactive: [1] 106 % of control | [2] 106 % of control | dose: 400.0 mg/kg/injection, schedule: Q04DX003 (ip), vehicle: saline with Tween-80 106 % of control

CCc1nnc2cccc(Cl)n12
inactive: [3] 100 % of control | [4] 109 % of control | dose: 400.0 mg/kg/injection, schedule: Q01DX001 (ip), vehicle: Klucel (hydroxypropylcellulose) (HPC) 100 % of control

O=[N+]([O-])c1ccc2c(c1)sc1cc([N+](=O)[O-])c(Br)cc12
inactive: [5] 104 % of control | [6] 102 % of control | [7] 112 % of control | dose: 400.0 mg/kg/injection, schedule: Q01DX009 (ip), vehicle: saline with Tween-80 103 % of control

COc1cc(OC)c(NC(=O)ON2C(=O)c3ccccc3C2=O)cc1Cl
inactive: [8] 119 % of control | [9] 122 % of control | [5] 122 % of control | [6] 110 % of control

c1cc[c]([Sn]([O][Sn]([c]2ccccc2)([c]2ccccc2)[c]2ccccc2)([c]2ccccc2)[c]2ccccc2)cc1
inactive: dose: 0.38 mg/kg/injection, schedule: Q04DX003 (ip), vehicle: saline 110 % of control | dose: 0.75 mg/kg/injection, schedule: Q04DX003 (ip), vehicle: saline 113 % of control | dose: 1.5 mg/kg/injection, schedule: Q04DX003 (ip), vehicle: saline 98 % of control | dose: 3.13 mg/kg/injection, schedule: Q04DX003 (ip), vehicle: Klucel (hydroxypropylcellulose) (HPC) 90 % of control | dose: 6.25 mg/kg/injection, schedule: Q04DX003 (ip), vehicle: saline with Tween-80 105 % of control

CCCCCCCC/C=C\CCCCCCCCCCCC(=O)OC/C=C/COC(=O)c1ccccc1
inactive: [10] 100 % of control | dose: 100.0 mg/kg/injection, schedule: Q01DX009 (ip), vehicle: Klucel (hydroxypropylcellulose) (HPC) 95 % of control | dose: 200.0 mg/kg/injection, schedule: Q01DX009 (ip), vehicle: Klucel (hydroxypropylcellulose) (HPC) 100 % of control

CCC/C(=N\NC(N)=NC)c1ccc(Cl)cc1
inactive: dose: 25.0 mg/kg/injection, schedule: Q04DX002 (ip), vehicle: saline 102 % of control | dose: 50.0 mg/kg/injection, schedule: Q04DX002 (ip), vehicle: saline 93 % of control

c1ccc2c(c1)CCC1=C2S/C(=C2/SC3=C(S2)c2ccccc2CC3)S1
inactive: dose: 7.5 mg/kg/injection, schedule: Q01DX005 (ip), vehicle: saline with Tween-80 94 % of control | dose: 15.0 mg/kg/injection, schedule: Q01DX005 (ip), vehicle: saline with Tween-80 100 % of control | dose: 30.0 mg/kg/injection, schedule: Q01DX005 (ip), vehicle: saline with Tween-80 100 % of control

Cc1nn(C(=S)S)c(C)c1N=Nc1ccccc1Cl
inactive: [11] 111 % of control | [12] 117 % of control | [13] 108 % of control

O=C(NC(CCSSCCC(NC(=O)OCc1ccccc1)C(=O)OCc1ccccc1)C(=O)OCc1ccccc1)OCc1ccccc1 (stereo not drawn)
inactive: dose: 12.5 mg/kg/injection, schedule: Q01DX009 (ip), vehicle: other 91 % of control | dose: 25.0 mg/kg/injection, schedule: Q01DX009 (ip), vehicle: other 98 % of control | dose: 50.0 mg/kg/injection, schedule: Q01DX009 (ip), vehicle: other 94 % of control | dose: 100.0 mg/kg/injection, schedule: Q01DX009 (ip), vehicle: other 98 % of control | dose: 200.0 mg/kg/injection, schedule: Q01DX009 (ip), vehicle: other 100 % of control

N#Cc1ccc(N(O)C(=O)c2ccccc2)cc1
inactive: [8] 99 % of control | [9] 100 % of control | [5] 99 % of control and 100 % of control

Cc1ccc2nc3sc(=O)sc3nc2c1
inactive: [14] 101 % of control | [15] 107 % of control

Nc1nc(Cl)c(Cl)nc1N
inactive: [5] 110 % of control | dose: 50.0 mg/kg/injection, schedule: Q04DX003 (ip), vehicle: saline with Tween-80 100 % of control | [6] 105 % of control | [1] 100 % of control | [7] 110 % of control | [2] 95 % of control

CN(C)N=Nc1ccc(C(N)=O)cc1
inactive: dose: 12.5 mg/kg/injection, schedule: Q01DX009 (ip), vehicle: saline 101 % of control and 103 % of control and 93 % of control | dose: 25.0 mg/kg/injection, schedule: Q01DX009 (ip), vehicle: saline 98 % of control and 99 % of control and 100 % of control | dose: 50.0 mg/kg/injection, schedule: Q01DX009 (ip), vehicle: saline 98 % of control and 107 % of control and 91 % of control | dose: 100.0 mg/kg/injection, schedule: Q01DX009 (ip), vehicle: saline 111 % of control and 96 % of control

CC(=O)CSCP(=O)(c1ccccc1)c1ccccc1
inactive: [11] 100 % of control | [12] 99 % of control | [13] 99 % of control

CC(=O)c1c(OCC(O)CN2CCN(C)CC2)cccc1OCC(O)CN1CCN(C)CC1 (stereo not drawn)
inactive: dose: 6.25 mg/kg/injection, schedule: Q01DX005 (ip), vehicle: saline 105 % of control | dose: 12.5 mg/kg/injection, schedule: Q01DX005 (ip), vehicle: saline 101 % of control | dose: 25.0 mg/kg/injection, schedule: Q01DX005 (ip), vehicle: saline 105 % of control

CCOP(=Nc1cc(C)ccc1C)(OCC)OCC
inactive: dose: 12.5 mg/kg/injection, schedule: Q01DX009 (ip), vehicle: Klucel (hydroxypropylcellulose) (HPC) 100 % of control | dose: 25.0 mg/kg/injection, schedule: Q01DX009 (ip), vehicle: Klucel (hydroxypropylcellulose) (HPC) 94 % of control | dose: 50.0 mg/kg/injection, schedule: Q01DX001 (ip), vehicle: Klucel (hydroxypropylcellulose) (HPC) 103 % of control | [10] 103 % of control and 93 % of control | [3] 100 % of control | [4] 96 % of control

O=C(O)C(O)C1CCCCC1 (stereo not drawn)
inactive: [5] 104 % of control | [6] 92 % of control

CC(C)Nc1nc(Cl)nc(Cl)n1
inactive: dose: 50.0 mg/kg/injection, schedule: Q01DX005 (ip), vehicle: Klucel (hydroxypropylcellulose) (HPC) 98 % of control | dose: 100.0 mg/kg/injection, schedule: Q01DX005 (ip), vehicle: Klucel (hydroxypropylcellulose) (HPC) 93 % of control

CCCC[P+](CCCC)(CCCC)CC(=O)O
inactive: [9] 97 % of control | [5] 100 % of control | [6] 95 % of control

COC(=O)c1ccc(N(C)CC/C(CN)=N/NC(N)=O)cc1
inactive: [11] 99 % of control | [12] 91 % of control | [13] 87 % of control

O=S(=O)(O)c1ccc2c(-c3ccccc3)c3ccccc3c(-c3ccccc3)c2c1
inactive: [14] 99 % of control | [15] 100 % of control | dose: 240.0 mg/kg/injection, schedule: Q01DX005 (ip), vehicle: Klucel (hydroxypropylcellulose) (HPC) 98 % of control

CCCCCC(C1SC(=S)NC1=O)C1SC(=S)NC1=O (stereo not drawn)
inactive: [11] 90 % of control | [12] 106 % of control

Cc1nc2n[nH]c(N)c2nc1C
inactive: dose: 100.0 mg/kg/injection, schedule: Q04DX003 (ip), vehicle: saline 100 % of control | dose: 200.0 mg/kg/injection, schedule: Q04DX003 (ip), vehicle: saline 104 % of control | dose: 400.0 mg/kg/injection, schedule: Q04DX003 (ip), vehicle: saline 95 % of control

CC(C)P(C(C)C)C(C)C
inactive: dose: 100.0 mg/kg/injection, schedule: Q01DX001 (ip), vehicle: saline with Tween-80 104 % of control | dose: 200.0 mg/kg/injection, schedule: Q01DX001 (ip), vehicle: saline with Tween-80 104 % of control | dose: 400.0 mg/kg/injection, schedule: Q01DX001 (ip), vehicle: saline with Tween-80 95 % of control
